Measurements published in patent US20030050283A1, “Composition for the treatment and/or prevention of macular degeneration, method for its manufacture, and its use for treating the eye” (priority 2001, published 2003).
pIC50: −log10 of the molar value. Read-outs that look alike come from different tables or passages of the source.

Experiments:
COX = target: T1, COX (Rattus norvegicus, UniProt P00406+P05503+P05505); assay: Binding of [3H]-A2E to COX by co-precipitation; settings: 20 min
T1 construct: Cytochrome c oxidase was purified from rat liver mitochondria of female Wistar rats; from tissue; host or cells: rat liver mitochondria (female Wistar rats)
Description: (§1) The quantity of protein used in each case was approximately 50 pmol. After 20 minutes of incubation in the darkness or under radiation using light, 10% (final concentration) of trichloroacetic acid was added, the precipitate was collected on Millipore filters, and the dissolved filter was examined for radioactivity.
To investigate the hypothesis of whether a molecular interaction occurs between COX and A2E, an acid precipitation of COX was performed after the addition of A2E and radiation with light, and/or after A2E exposure in darkness (see Table IV).
(§2) [^3H]-A2E was added to solubilized COX or other proteins. After 20 minutes of incubation in darkness (setup was wrapped in aluminum foil) or under exposure to light, 10% trichloroacetic acid (final concentration) was added, the precipitate was collected on Millipore filters, and the filters, which were dissolved in solvent, were subsequently examined for radioactivity. CL=cardiolipin (diphosphatidylglycerol, DPC); Cyt. c=cytochrome c; BSA=bovine serum albumin.

[1] = target: T2, solubilized cytochrome c oxidase (COX) (Rattus norvegicus, UniProt P00406+P05503+P05505); assay: Activity of solubilized cytochrome c oxidase by oxygen consumption (Clarke electrode); assay type: biochemical; settings: for IC50: read-out: IC50 (μM) in relation to COX
T2 construct: Cytochrome c oxidase was purified from rat liver mitochondria of female Wistar rats; from tissue; host or cells: rat liver mitochondria (female Wistar rats)
Description: Cytochrome c oxidase was purified from rat liver mitochondria of female Wistar rats as described by Frei et al. (Frei, B., Winterhalter, K. H., and Richter, C. (1985) J. Biol. Chem. 260, 7394-7401). The homogenization medium contained 210 mM mannitol, 70 mM saccharose, 10 mM tris-HCl (pH 7.4), 0.1 mM EDTA, and 0.5 mg/mL BSA. The heart mitochondria were purified using a similar method, a polytron homogenizer being used. The cytochrome c oxidase was purified according to the method described by Adez and Cascarano (Adez, I. Z., and Cascarano, J. (1977) J. Bioenerg. Biomemb. 9, 237-253). Cytochrome c oxidase solubilized using Triton X-100 was reconstituted in variously composed phospholipid vesicles of differing dimensions, a modified cholate dialysis method being used. (Niggli, V., Siegel, E., and Carafoli, E. (1982) J. Biol. Chem. 257, 2350-2356). 1 mL of a phospholipid suspension (10 mg/mL in 50 mM KCl, 10 mM HEPES-KOH (pH 7.0), 0.1 mM K^+-EDTA; buffer A) was solubilized in 0.2 mL of a 400 mM cholate solution. The purified cytochrome c oxidase (40 μg) was added to 0.4 mL of the cholate-phospholipid mixture. After an hour on ice, the sample was put into dialysis tubes and dialyzed in the cold against 1 L of buffer A (24 hours), three buffer replacements being performed. Cytochrome c oxidase from Paracoccus denitrificans was graciously provided by Dr. Bernd Ludwig, Biology Center of the University of Frankfurt am Main, Germany.
The cytochrome c oxidase activity was determined by establishing the oxygen consumption. For this purpose, a Clarke electrode was used at 25° C. (Yellow Spring Instruments, Yellow Spring, Ohio), the measurement being performed under continuous stirring. Solubilized cytochrome c oxidase was suspended in 40 mM K^+-phosphate, 0.005 mM EDTA (pH 7.0), 0.7% Tween 20 containing 0.02 mM cytochrome c as a substrate and a mixture of ascorbate und tetramethyl-p-phenylenediamine (TMPD) (10 mM/1 mM). Reconstituted cytochrome c oxidase was measured with ascorbate/TPMD (10 mM/0.2 mM) in a medium containing 100 mM KCl, 0.01 M HEPES-KOH (pH 7.0) und 0.1 mM EDTA.
The radiation with light was performed using a 70 watt lamp which was attached at 10 cm height over the electrode. The oxidation of lipids using peroxynitrite was achieved by suspending 20 mg DPG in 1 mL of 40 mM K^+-phosphate and 0.05 mM EDTA (pH 7.0) and mixing with 0.94 μmol peroxynitrite (original solution 94 mM in 0.1 N NaOH). Malondialdehyde was measured as an index for the lipid oxidation as already described (Klein, S. D., Walt, H., and Richter, C. (1997) Arch. Biochem. Biophys., 348, 313-319).
The activity of the COX could be easily measured by registering the oxygen consumption of the enzyme in the presence of ascorbate and TPMD (tetramethyl-p-phenylene diamine) as an electron source to reduce cytochrome c.
The experiment was performed in darkness (line a) and/or under the incidence of light (line b). 5 μg of catalase from beef liver with 500 μM of H2O2 was added at the positions marked with arrows. […] Two separate measurements are illustrated (lines a and b). At the positions marked by dashed arrows, 300 μg/mL of cardiolipin was added at t=210 seconds and t=950 seconds. At the position of the solid arrow, 5 μg of catalase from beef liver with 500 μM of H2O2 was added.
The oxygen consumption of solubilized COX (2 μg/mL) was measured in the presence of various substances using a Clarke electrode (see materials and methods). […] TPP^+=tetraphenyl phosphonium ion; MPP^+=methylphenyl pyridinium ion.
The oxygen consumption of solubilized COX (2 μg/mL) was measured in the presence of various substances using a Clarke electrode (see materials and methods).

MCF-7 cells = assay: A2E-induced apoptosis of MCF-7 cells in culture; assay type: cell-based
From the text: These advantageous properties predestine the phospholipids according to the present invention for use as a medication for treating pathological conditions of the retina, particular for treating AMD and macular degeneration.

COX from rat hearts = target: T3, COX from rat hearts (Rattus norvegicus, UniProt P00406+P05503+P05505); assay: Reconstituted COX from rat hearts, sensitivity to A2E; assay type: biochemical
T3 construct: The heart mitochondria were purified using a similar method, a polytron homogenizer being used; from tissue; host or cells: rat heart mitochondria
Description: (§3) Cytochrome c oxidase was purified from rat liver mitochondria of female Wistar rats as described by Frei et al. (Frei, B., Winterhalter, K. H., and Richter, C. (1985) J. Biol. Chem. 260, 7394-7401). The homogenization medium contained 210 mM mannitol, 70 mM saccharose, 10 mM tris-HCl (pH 7.4), 0.1 mM EDTA, and 0.5 mg/mL BSA. The heart mitochondria were purified using a similar method, a polytron homogenizer being used. The cytochrome c oxidase was purified according to the method described by Adez and Cascarano (Adez, I. Z., and Cascarano, J. (1977) J. Bioenerg. Biomemb. 9, 237-253). Cytochrome c oxidase solubilized using Triton X-100 was reconstituted in variously composed phospholipid vesicles of differing dimensions, a modified cholate dialysis method being used. (Niggli, V., Siegel, E., and Carafoli, E. (1982) J. Biol. Chem. 257, 2350-2356). […]
(§4) The cytochrome c oxidase activity was determined by establishing the oxygen consumption. […] Reconstituted cytochrome c oxidase was measured with ascorbate/TPMD (10 mM/0.2 mM) in a medium containing 100 mM KCl, 0.01 M HEPES-KOH (pH 7.0) und 0.1 mM EDTA.
(§5) A protective effect by negatively charged phospholipids was also observed when increasing quantities of cardiolipin (see above, a negatively charged phospholipid) were added to vesicles containing PC/PE (see Table III). […]

Myoglobin = target: T4, Myoglobin (Homo sapiens, UniProt P02144); assay: Binding of [3H]-A2E to myoglobin by co-precipitation; settings: 20 min
T4 sequence (P02144 1-154): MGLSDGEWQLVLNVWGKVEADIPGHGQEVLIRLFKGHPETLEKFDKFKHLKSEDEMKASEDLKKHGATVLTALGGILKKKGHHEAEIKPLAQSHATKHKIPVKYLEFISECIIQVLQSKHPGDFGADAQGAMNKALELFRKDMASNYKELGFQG
Description: as §1, §2

BSA = BSA (Bos taurus, UniProt P02769); assay: Binding of [3H]-A2E to BSA by co-precipitation; parameters: species or system bovine; settings: 20 min
Description: as §1, §2

Cyt.c = Cyt.c (Homo sapiens, UniProt P99999); assay: Binding of [3H]-A2E to cytochrome c by co-precipitation; settings: 20 min
Description: as §1, §2

[2] = target: T5, COX from Paracoccus denitrificans (Paracoccus denitrificans, UniProt P08306+P98002); assay: Reconstituted COX from Paracoccus denitrificans, sensitivity to A2E; assay type: biochemical
T5 construct: host or cells: gift from Dr. Bernd Ludwig, University of Frankfurt am Main
Description: as §3, §4, §5

[3] = target: T2, solubilized cytochrome c oxidase (COX); assay: Activity of solubilized cytochrome c oxidase by oxygen consumption (Clarke electrode); assay type: biochemical; settings: read-out: IC50 (A2E concentration for 50% inhibition of COX)
[4] = target: T6, reconstituted cytochrome c oxidase (COX) (Rattus norvegicus, UniProt P00406+P05503+P05505); assay: Activity of cytochrome c oxidase reconstituted in phospholipid vesicles, oxygen consumption in presence of A2E; assay type: biochemical; settings: phospholipid used in the vesicles
T6 construct: Cytochrome c oxidase was purified from rat liver mitochondria of female Wistar rats; from tissue; host or cells: rat liver mitochondria (female Wistar rats)
T6 sequence (P00406 whole entry, other chains not shown): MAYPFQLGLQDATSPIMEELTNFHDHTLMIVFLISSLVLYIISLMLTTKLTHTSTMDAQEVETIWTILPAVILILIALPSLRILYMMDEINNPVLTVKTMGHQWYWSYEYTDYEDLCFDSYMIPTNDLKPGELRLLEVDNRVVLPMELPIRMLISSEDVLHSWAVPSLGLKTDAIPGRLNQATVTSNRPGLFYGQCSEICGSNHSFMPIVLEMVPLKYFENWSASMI
T6 sequence (P05505 whole entry, other chains not shown): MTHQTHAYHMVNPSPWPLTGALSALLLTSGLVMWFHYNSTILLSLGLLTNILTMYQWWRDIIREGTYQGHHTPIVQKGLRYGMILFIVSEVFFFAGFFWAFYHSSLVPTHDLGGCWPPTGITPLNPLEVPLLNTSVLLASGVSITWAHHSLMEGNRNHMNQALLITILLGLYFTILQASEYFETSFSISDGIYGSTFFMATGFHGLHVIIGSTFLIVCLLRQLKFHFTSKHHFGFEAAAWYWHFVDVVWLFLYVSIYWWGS
Description: Cytochrome c oxidase was purified from rat liver mitochondria of female Wistar rats as described by Frei et al. (Frei, B., Winterhalter, K. H., and Richter, C. (1985) J. Biol. Chem. 260, 7394-7401). The homogenization medium contained 210 mM mannitol, 70 mM saccharose, 10 mM tris-HCl (pH 7.4), 0.1 mM EDTA, and 0.5 mg/mL BSA. […] The cytochrome c oxidase was purified according to the method described by Adez and Cascarano (Adez, I. Z., and Cascarano, J. (1977) J. Bioenerg. Biomemb. 9, 237-253). Cytochrome c oxidase solubilized using Triton X-100 was reconstituted in variously composed phospholipid vesicles of differing dimensions, a modified cholate dialysis method being used. […] 1 mL of a phospholipid suspension (10 mg/mL in 50 mM KCl, 10 mM HEPES-KOH (pH 7.0), 0.1 mM K^+-EDTA; buffer A) was solubilized in 0.2 mL of a 400 mM cholate solution. The purified cytochrome c oxidase (40 μg) was added to 0.4 mL of the cholate-phospholipid mixture. After an hour on ice, the sample was put into dialysis tubes and dialyzed in the cold against 1 L of buffer A (24 hours), three buffer replacements being performed.
The cytochrome c oxidase activity was determined by establishing the oxygen consumption. […] Reconstituted cytochrome c oxidase was measured with ascorbate/TPMD (10 mM/0.2 mM) in a medium containing 100 mM KCl, 0.01 M HEPES-KOH (pH 7.0) und 0.1 mM EDTA. […]

T1 sequence (P00406 whole entry, other chains not shown): as the sequence (P00406 whole entry, other chains not shown) above
T1 sequence (P05505 whole entry, other chains not shown): as the sequence (P05505 whole entry, other chains not shown) above
T2 sequence (P00406 whole entry, other chains not shown): as the sequence (P00406 whole entry, other chains not shown) above
T2 sequence (P05505 whole entry, other chains not shown): as the sequence (P05505 whole entry, other chains not shown) above
Chain of Cyt.c (P99999 whole entry): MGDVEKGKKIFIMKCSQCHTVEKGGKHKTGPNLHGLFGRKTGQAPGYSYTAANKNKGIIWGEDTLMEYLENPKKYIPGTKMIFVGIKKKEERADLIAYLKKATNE
Chain of BSA (P02769 25-607): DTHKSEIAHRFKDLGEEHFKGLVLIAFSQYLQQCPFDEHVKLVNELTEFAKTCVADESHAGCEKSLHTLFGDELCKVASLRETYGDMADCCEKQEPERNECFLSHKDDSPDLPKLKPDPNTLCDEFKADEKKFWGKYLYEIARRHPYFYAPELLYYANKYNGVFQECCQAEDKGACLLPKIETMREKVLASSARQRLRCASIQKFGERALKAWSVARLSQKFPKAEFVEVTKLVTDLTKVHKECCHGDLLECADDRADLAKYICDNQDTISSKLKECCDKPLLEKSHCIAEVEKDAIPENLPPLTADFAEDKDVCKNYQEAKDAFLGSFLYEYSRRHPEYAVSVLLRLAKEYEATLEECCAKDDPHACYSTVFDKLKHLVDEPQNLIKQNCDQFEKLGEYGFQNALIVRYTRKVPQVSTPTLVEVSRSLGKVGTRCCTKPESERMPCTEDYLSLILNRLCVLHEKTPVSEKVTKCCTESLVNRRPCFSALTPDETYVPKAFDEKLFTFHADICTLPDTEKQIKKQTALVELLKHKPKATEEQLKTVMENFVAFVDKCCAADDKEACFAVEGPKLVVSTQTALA
T3 sequence (P00406 whole entry, other chains not shown): as the sequence (P00406 whole entry, other chains not shown) above
T3 sequence (P05505 whole entry, other chains not shown): as the sequence (P05505 whole entry, other chains not shown) above
T5 sequence (P08306 30-281): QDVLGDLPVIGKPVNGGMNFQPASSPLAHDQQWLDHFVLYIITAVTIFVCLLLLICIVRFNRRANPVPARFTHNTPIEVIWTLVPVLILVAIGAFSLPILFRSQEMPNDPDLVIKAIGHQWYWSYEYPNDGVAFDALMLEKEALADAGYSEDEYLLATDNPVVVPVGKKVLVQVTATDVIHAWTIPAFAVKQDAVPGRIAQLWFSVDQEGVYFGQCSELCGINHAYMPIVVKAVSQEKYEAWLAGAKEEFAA
T5 sequence (P98002 whole entry): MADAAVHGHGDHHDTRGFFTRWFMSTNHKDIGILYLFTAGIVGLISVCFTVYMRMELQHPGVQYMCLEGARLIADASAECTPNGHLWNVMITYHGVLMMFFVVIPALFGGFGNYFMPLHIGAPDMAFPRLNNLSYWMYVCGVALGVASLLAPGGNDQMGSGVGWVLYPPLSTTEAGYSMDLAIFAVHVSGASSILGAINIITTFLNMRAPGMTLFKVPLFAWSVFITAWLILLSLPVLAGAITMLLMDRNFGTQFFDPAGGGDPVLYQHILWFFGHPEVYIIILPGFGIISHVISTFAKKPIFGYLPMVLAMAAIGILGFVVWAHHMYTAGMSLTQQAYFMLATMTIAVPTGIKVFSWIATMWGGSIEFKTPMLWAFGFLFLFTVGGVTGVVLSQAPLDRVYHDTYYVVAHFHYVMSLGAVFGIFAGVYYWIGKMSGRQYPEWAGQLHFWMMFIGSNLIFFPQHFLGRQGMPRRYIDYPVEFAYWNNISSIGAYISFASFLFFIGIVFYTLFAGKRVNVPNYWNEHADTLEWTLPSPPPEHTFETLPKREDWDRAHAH

In the case of 1,3 diphosphatidylglycerol [CL], the “Prevention of A2E binding to COX” value (COX; co-precipitation) was “almost completely prevented”, the “Protective effect on COX against A2E after (pre)treatment with peroxynitrite” value ([1]; CL oxidised with peroxynitrite) was “loss of the protective properties” and the Cells survived (MCF-7 cells; 60 μM A2E + CL 500 μg/mL, 5 days) was 95%. For the same compound, the “Protection from A2E-induced apoptosis” value (MCF-7 cells; CL 500 μg/mL) was “significant protective effect”.
For `CC1=C(/C=C/C(C)=C/C=C/C(C)=C/c2cc(/C=C/C=C(C)/C=C/C3=C(C)CCCC3(C)C)cc[n+]2CCO)C(C)(C)CCC1` [A2E, N-retinyl-N-retinylidene ethanolamine], the “Molecules A2E/molecules protein” value (COX; COX + CL + Cyt.c, darkness) was 0.7 +/− 0.9 (n = 3), the “Molecules A2E/molecules protein” value (COX; COX + CL + Cyt.c, exposure to light) was 3.8 +/− 2.3 (n = 4) and the “Molecules A2E/molecules protein” value (COX; COX + CL, exposure to light) was 2.7 +/− 3.6 (n = 4). The “Sensitivity of enzyme to A2E” value (COX from rat hearts) was “sensitive”, the “Molecules A2E/molecules protein” value (Myoglobin; darkness) was 0.0 (n = 2) and the “Molecules A2E/molecules protein” value (Myoglobin; exposure to light) was 0.0 (n = 2). The “Molecules A2E/molecules protein” value (BSA; darkness) was 1.6 +/− 0.5 (n = 3), the “Molecules A2E/molecules protein” value (BSA; exposure to light) was 1.6 +/− 0.5 (n = 3) and the “% COX inhibition” value ([1]; solubilized COX 2 μg/mL, A2E always 20 μM, CL 200 μg/mL, RR 10 μM, La3+ 200 μM where added) was 60%. For the same compound, the IC50 ([1]; solubilized COX 2 μg/mL) was 7 µM, the Cells died off (MCF-7 cells; 60 μM A2E, 5 days) was 99% and the Induction of apoptosis (MCF-7 cells; A2E 10, 30, 60 μM, 3 and/or 5 days) was “led to the cells becoming apoptotic”. For the same compound, the “Molecules A2E/molecules protein” value (Cyt.c; darkness) was 0.0 (n = 3), the “Molecules A2E/molecules protein” value (Cyt.c; exposure to light) was 0.0 (n = 3) and the “Sensitivity of enzyme to A2E” value [2] was “sensitive”. It also gave a pIC50 ([3]; solubilized COX 1 μg/mL) of 5.52 and a pIC50 ([3]; solubilized COX 4 μg/mL) of 4.70.
`Cc1cc(N)c2ccccc2[n+]1CCCCCCCCCC[n+]1c(C)cc(N)c2ccccc21` [Dequalinium] gave an IC50 ([1]; solubilized COX 2 μg/mL) of 40 µM.
`C[n+]1ccc(-c2ccccc2)cc1` [MPP^+, methylphenyl pyridinium ion] was tested, and the “IC50 (μM) in relation to COX” value ([1]; solubilized COX 2 μg/mL) was “No inhibition”.
`CC1=C(/C=C/C(C)=C/C=C/C(C)=C/C=O)C(C)(C)CCC1` [Retinal] was tested, and the IC50 ([1]; solubilized COX 2 μg/mL) was 200 µM.
With `CCCCCCCCCCCCCCCCCCN` [Stearylamine] the “IC50 (μM) in relation to COX” value ([1]; solubilized COX 2 μg/mL) was “No inhibition”.
With `c1ccc([P+](c2ccccc2)(c2ccccc2)c2ccccc2)cc1` [TPP^+, tetraphenyl phosphonium ion] the “IC50 (μM) in relation to COX” value ([1]; solubilized COX 2 μg/mL) was “No inhibition”.
In the case of phosphatidylinositol [PI], the “Protection of reconstituted COX from inhibition by A2E” value [4] was “pronounced protective effect”.
